Molecular target: T1, Met kinase domain (GST fusion protein) (Homo sapiens, UniProt P08581)
T1 construct: Purified GST fusion protein containing the Met kinase domain
Assay: Met transphosphorylation assay (ELISA, poly(glu-tyr) substrate);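 also: Cell-free ELISA with plate-bound poly(Glu:Tyr 4:1) phosphorylated by GST-fused Met kinase domain plus ATP and Mn2+, phosphotyrosine detected by anti-phosphotyrosine antibody with HRP and ABTS read-out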
Assay type: biochemical
Conditions: read-out: Met IC50

T1 sequence (P08581 1078-1345 limits assumed): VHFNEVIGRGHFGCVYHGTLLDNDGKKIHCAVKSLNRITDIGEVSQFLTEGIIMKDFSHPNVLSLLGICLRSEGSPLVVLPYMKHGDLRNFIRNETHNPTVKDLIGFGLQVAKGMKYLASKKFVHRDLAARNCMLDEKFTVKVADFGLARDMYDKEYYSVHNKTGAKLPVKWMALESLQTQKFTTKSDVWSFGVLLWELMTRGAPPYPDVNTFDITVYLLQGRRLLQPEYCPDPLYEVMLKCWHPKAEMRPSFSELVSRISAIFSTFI

Row | IC50 | Structure (SMILES)
1 | 1110 nM | Nc1ncc(-c2ccc(C(=O)NCCN3CCOCC3)cc2)nc1OCc1c(F)ccc(F)c1Cl [II-45, 4-[5-Amino-6-(2-chloro-3,6-difluoro-benzyloxy)-pyrazin-2-yl]-N-(2-morpholin-4-yl-ethyl)-benzamide]
2 | 2850 nM | CN1CCN(C(=O)c2cccc(-c3cnc(N)c(OCc4c(F)ccc(F)c4Cl)n3)c2)CC1 [II-48, {3-[5-Amino-6-(2-chloro-3,6-difluoro-benzyloxy)-pyrazin-2-yl]-phenyl}-(4-methyl-piperazin-1-yl)-methanone]
3 | 1020 nM | Nc1ncc(-c2cccc(C(=O)N3CC[C@@H](N)C3)c2)nc1OCc1c(F)ccc(F)c1Cl [II-49, {3-[5-Amino-6-(2-chloro-3,6-difluoro-benzyloxy)-pyrazin-2-yl]-phenyl}-[(3R)-3-amino-pyrrolidin-1-yl]-methanone]
4 | 910 nM | Nc1ncc(-c2cccc(C(=O)N3CC[C@H](N)C3)c2)nc1OCc1c(F)ccc(F)c1Cl [II-50, {3-[5-Amino-6-(2-chloro-3,6-difluoro-benzyloxy)-pyrazin-2-yl]-phenyl}-[(3S)-3-amino-pyrrolidin-1-yl]-methanone]
5 | 1600 nM | Nc1ncc(-c2cccc(C(=O)NCCN3CCCC3)c2)nc1OCc1c(F)ccc(F)c1Cl [II-55, 3-[5-Amino-6-(2-chloro-3,6-difluoro-benzyloxy)-pyrazin-2-yl]-N-(2-pyrrolidin-1-yl-ethyl)-benzamide]
6 | 630 nM | Nc1ncc(-c2cccc(C(=O)N3CCC[C@H]3CN3CCCC3)c2)nc1OCc1c(F)ccc(F)c1Cl [II-57, {3-[5-Amino-6-(2-chloro-3,6-difluoro-benzyloxy)-pyrazin-2-yl]-phenyl}-[(2S)-pyrrolidin-1-ylmethyl-pyrrolidin-1-yl]-methanone]
7 | 2500 nM | Nc1ncc(-c2cccc(C(=O)NCCN3CCOCC3)c2)nc1OCc1c(F)ccc(F)c1Cl [II-58, 3-[5-Amino-6-(2-chloro-3,6-difluoro-benzyloxy)-pyrazin-2-yl]-N-(2-morpholin-4-yl-ethyl)-benzamide]
8 | 350 nM | Nc1ncc(-c2ccc3[nH]cc(CN4CCCC4)c3c2)nc1OCc1c(F)ccc(F)c1Cl [II-62, 3-(2-Chloro-3,6-difluoro-benzyloxy)-5-(3-pyrrolidin-1-ylmethyl-1H-indol-5-yl)-pyrazin-2-ylamine]
9 | 510 nM | Nc1ncc(-c2ccc3[nH]cc(CN4CCCCC4)c3c2)nc1OCc1c(F)ccc(F)c1Cl [II-67, 3-(2-Chloro-3,6-difluoro-benzyloxy)-5-(3-piperidin-1-ylmethyl-1H-indol-5-yl)-pyrazin-2-ylamine]
10 | 10600 nM | CC(C)C(Oc1nc(-c2ccc(OCCN3CCOCC3)cc2)cnc1N)c1c(F)ccc(F)c1Cl (centres unmarked) [II-69, 3-[1-(2-Chloro-3,6-difluoro-phenyl)-2-methyl-propoxy]-5-[4-(2-morpholin-4-yl-ethoxy)-phenyl]-pyrazin-2-ylamine]
11 | 510 nM | CC(Oc1nc(-c2ccc(OCCN3CCOCC3)cc2)cnc1N)c1c(F)ccc(F)c1Cl (centres unmarked) [II-70]
12 | 300 nM | CC(Oc1nc(-c2ccc(OCCN3CCOCC3)cc2)cnc1N)c1c(Cl)ccc(F)c1Cl (centres unmarked) [II-71, 3-[1-(2,6-Dichloro-3-fluoro-phenyl)-ethoxy]-5-[4-(2-morpholin-4-yl-ethoxy)-phenyl]-pyrazin-2-ylamine; compound with trifluoro-acetic acid]
13 | 69 nM | CC(Oc1nc(-c2cccc(C(=O)N3CC[C@H](N)C3)c2)cnc1N)c1c(Cl)ccc(F)c1Cl (stereo partly drawn) [II-84, (3-{5-Amino-6-[1-(2,6-dichloro-3-fluoro-phenyl)-ethoxy]-pyrazin-2-yl}-phenyl)-[(3S)-3-amino-pyrrolidin-1-yl)-m-ethanone]
14 | 110 nM | CC(Oc1nc(-c2cccc(C(=O)N3CC[C@@H](N)C3)c2)cnc1N)c1c(Cl)ccc(F)c1Cl (stereo partly drawn) [II-85, (3-{5-Amino-6-[1-(2,6-dichloro-3-fluoro-phenyl)-ethoxy]-pyrazin-2-yl}-phenyl)-[(3R)-3-amino-pyrrolidin-1-yl)-m-ethanone]
15 | 150 nM | CC(Oc1nc(-c2cccc(C(=O)NCCCN3CCCC3)c2)cnc1N)c1c(Cl)ccc(F)c1Cl (centres unmarked) [II-91, 3-{5-Amino-6-[1-(2,6-dichloro-3-fluoro-phenyl)-ethoxy]-pyrazin-2-yl}-N-(3-pyrrolidin-1-yl-propyl)-benzamide]
16 | 150 nM | CC(Oc1nc(-c2cccc(C(=O)N3CCC(N4CCCC4)CC3)c2)cnc1N)c1c(Cl)ccc(F)c1Cl (centres unmarked) [II-92, (3-{5-Amino-6-[1-(2,6-dichloro-3-fluoro-phenyl)-ethoxy]-pyrazin-2-yl}-phenyl)-(4-pyrrolidin-1-yl-piperidin-1-yl)-methanone]
17 | 150 nM | CC(Oc1nc(-c2cccc(C(=O)NCCCN3CCCC3)c2)cnc1N)c1c(Cl)ccc(F)c1Cl (centres unmarked) [II-96, 3-{5-Amino-6-[1-(2,6-dichloro-3-fluoro-phenyl)-ethoxy]-pyrazin-2-yl}-N-(3-pyrrolidin-1-yl-propyl)-benzamide]
18 | 350 nM | CC(Oc1nc(-c2cccc(C(=O)NCCCN3CCCC3)c2)cnc1N)c1c(F)ccc(F)c1Cl (centres unmarked) [II-97, 3-{5-Amino-6-[1-(2-chloro-3,6-difluoro-phenyl)-ethoxy]-pyrazin-2-yl}-N-(3-pyrrolidin-1-yl-propyl)-benzamide]
19 | 210 nM | CC(Oc1nc(-c2cccc(C(=O)NC3CCN(C)CC3)c2)cnc1N)c1c(F)ccc(F)c1Cl (centres unmarked) [II-98, 3-{5-Amino-6-[1-(2-chloro-3,6-difluoro-phenyl)-ethoxy]-pyrazin-2-yl}-N-(1-methyl-piperidin-4-yl)-benzamide]

Further lines, the molecule ahead of its results:

Row | Structure (SMILES) | IC50
20 | Nc1ncc(-c2ccc(C(=O)NCCCN3CCCC3)cc2)nc1OCc1c(F)ccc(F)c1Cl [II-38, 4-[5-Amino-6-(2-chloro-3,6-difluoro-benzyloxy)-pyrazin-2-yl]-N-(3-pyrrolidin-1-yl-propyl)-benzamide] | 580 nM
21 | CN(C)[C@H]1CCN(C(=O)c2ccc(-c3cnc(N)c(OCc4c(F)ccc(F)c4Cl)n3)cc2)C1 [II-39, {4-[5-Amino-8-(2-chloro-3,6-difluoro-benzyloxy)-pyrazin-2-yl]-phenyl}-[(3S)-3-dimethylamino-pyrrolidin-1-yl]-methanone] | 670 nM
22 | Nc1ncc(-c2ccc(C(=O)NCCCN3CCOCC3)cc2)nc1OCc1c(F)ccc(F)c1Cl [II-43, 4-[5-Amino-6-(2-chloro-3,6-difluoro-benzyloxy)-pyrazin-2-yl]-N-(3-morpholin-4-yl-propyl)-benzamide] | 590 nM
23 | CN1CCN(C(=O)c2ccc(-c3cnc(N)c(OCc4c(F)ccc(F)c4Cl)n3)cc2)CC1 [II-46, {4-[5-Amino-6-(2-chloro-3,6-difluoro-benzyloxy)-pyrazin-2-yl]-phenyl}-(4-methyl-piperazin-1-yl)-methanone] | 680 nM
24 | Nc1ncc(-c2cccc(C(=O)NCCCN3CCOCC3)c2)nc1OCc1c(F)ccc(F)c1Cl [II-52, 3-[5-Amino-6-(2-chloro-3,6-difluoro-benzyloxy)-pyrazin-2-yl]-N-(3-morpholin-4-yl-propyl)-benzamide] | 4200 nM
25 | CC(=O)N1CCN(CCNC(=O)c2cccc(-c3cnc(N)c(OCc4c(F)ccc(F)c4Cl)n3)c2)CC1 [II-59, N-[2-(4-Acetyl-piperazin-1-yl)-ethyl]-3-[5-amino-6-(2-chloro-3,6-difluoro-benzyloxy)-pyrazin-2-yl]-benzamide] | 2770 nM
26 | Nc1ncc(-c2cccc(C(=O)NCCCN3CCCC3)c2)nc1OCc1c(F)ccc(F)c1Cl [II-60, 3-[5-Amino-6-(2-chloro-3,6-difluoro-benzyloxy)-pyrazin-2-yl]-N-(3-pyrrolidin-1-yl-pyropyl)-benzamide] | 1480 nM
27 | CCN(CC)Cc1c[nH]c2ccc(-c3cnc(N)c(OCc4c(F)ccc(F)c4Cl)n3)cc12 [II-63, 3-(2-Chloro-3,6-difluoro-benzyloxy)-5-(3-diethylaminomethyl-1H-indol-5-yl)-pyrazin-2-ylamine] | 730 nM
28 | CC(=O)N1CCN(Cc2c[nH]c3ccc(-c4cnc(N)c(OCc5c(F)ccc(F)c5Cl)n4)cc23)CC1 [II-64, 1-(4-{5-[5-Amino-6-(2-chloro-3,6-difluoro-benzyloxy)-pyrazin-2-yl]-1H-indol-3-ylmethyl}-piperazin-1-yl)-ethanone] | 1500 nM
29 | C[C@@H]1CN(Cc2c[nH]c3ccc(-c4cnc(N)c(OCc5c(F)ccc(F)c5Cl)n4)cc23)C[C@H](C)O1 [II-65, 3-(2-Chloro-3,6-difluoro-benzyloxy)-5-[3-(2,6-dimethyl-morpholin-4-ylmethyl)-1H-indol-5-yl]-pyrazin-2-ylamine] | 2400 nM
30 | CC(=O)N[C@H]1CCN(Cc2c[nH]c3ccc(-c4cnc(N)c(OCc5c(F)ccc(F)c5Cl)n4)cc23)C1 [II-66, N-(1-{5-[5-Amino-6-(2-chloro-3,6-difluoro-benzyloxy)-pyrazin-2-yl]-1H-indol-3-ylmethyl}-(3S)-pyrrolidin-3-yl)-acetamide] | 550 nM
31 | Nc1ncc(-c2ccc3[nH]cc(CN4CCOCC4)c3c2)nc1OCc1c(F)ccc(F)c1Cl [II-68, 3-(2-Chloro-3,6-difluoro-benzyloxy)-5-(3-morpholin-4-ylmethyl-1H-indol-5-yl)-pyrazin-2-ylamine] | 1150 nM
32 | CC(Oc1nc(-c2cccc(C(=O)O)c2)cnc1N)c1c(Cl)ccc(F)c1Cl (centres unmarked) [II-83, 3-{5-amino-6-[1-(2,6-dichloro-3-fluoro-phenyl)-ethoxy]-pyrazin-2-yl}benzoic acid] | 1360 nM
33 | CC(=O)N1CCN(CCNC(=O)c2cccc(-c3cnc(N)c(OC(C)c4c(Cl)ccc(F)c4Cl)n3)c2)CC1 (centres unmarked) [II-87, N-[2-(4-Acetyl-piperazin-1-yl)-ethyl]-3-{5-amino-6-[1-(2,6-dichloro-3-fluoro-phenyl)-ethoxy]-pyrazin-2-yl}-benzamide] | 186 nM
34 | Nc1ncc(-c2ccc(C(=O)NCCN3CCOCC3)cc2)nc1OCc1cccc(F)c1C(F)(F)F [II-94, 4-[5-Amino-6-(3-fluoro-2-trifluoromethyl-benzyloxy)-pyrazin-2-yl]-N-(2-morpholin-4-yl-ethyl)-benzamide] | 220 nM
35 | CN1CCC(NC(=O)c2ccc(-c3cnc(N)c(OCc4cccc(F)c4C(F)(F)F)n3)cc2)CC1 [II-95, 4-[5-Amino-6-(3-fluoro-2-trifluoromethyl-benzyloxy)-pyrazin-2-yl]-N-(1-methyl-piperidin-4-yl)-benzamide] | 81 nM
